“And” between values parts separate entries of the source, which are not always exact repeats. Equal entries are not always repeated. “Also recorded” adds a separate entry of the source. Where two headings read alike, the source gives them in different places.
Legend:
[1] = system: lymphoid leukemia L1210; conditions: cited from earlier work; for activity in L1210: prior testing
[2] = system: lymphocytic leukemia P388; format: in vivo, murine; conditions: for OD: QD1-9, Table IX; for ILS: QD1-9, at OD; for ILS / animals alive per 6: Table IX; for animals alive per 6: QD1-9, day 30, at OD; for survivors, P388: Table XI, parentheses, per 6
[3] = system: B16 melanocarcinoma; format: in vivo, murine; conditions: for OD: QD1-9, Table IX; for ILS: QD1-9, at OD, Table IX
[4] = system: lymphoid leukemia L1210; format: in vivo, murine; conditions: for ILS: QD1-9, at OD
Text: (§1) A third IC tumor model, the ependymoblastoma system, was also studied. This system requires intracerebral implantation of a solid tumor fragment while the IC L1210 and IC P388 systems utilize IC inoculated ascites tumor fluid. All three use IP drug treatment however. […] Cures (survivors from the group of six mice on the last day of the experiment) are indicated.

[5] = system: ependymoblastoma; format: in vivo, murine; conditions: for OD: QD1-5, Table X; for ILS: QD1-5, at OD; for ILS / animals alive per 6: Table X; for animals alive per 6: QD1-5, day 60, at OD; for survivors, EM: parentheses, per 6
Text: ^c Ic tumor implantation, ip QD15 treatment schedule.
as §1

[6] = system: lymphoid leukemia L1210; conditions: for OD / ILS / animals alive per 6 / T-C: Table VIII; for survivors, IP L1210: parentheses, per 6; for T-C: QD1-9, day 5, at OD
Text: ^b Ip tumor implantation, ip QD19 treatment schedule.
^e ILS = [(treated survival + control survival) × 100%] - 100%
The L1210, P388 and B16 test systems described in Table II utilize intraperitoneal (IP) tumor implantation and IP drug treatment while the Lewis lung system employs subcutaneous tumor implantation and IP treatment. All three CNS tumor models (Table III) use intracerebral (IC) tumor implantation and IP treatment.
Aqueous saline solution (0.9%) was used as the drug vehicle. Normally, five doses were employed per experiment with the top dose chosen to produce toxicity. The lower doses were 50% of each preceeding dose.
Consistent with NCI antitumor test protocols, intraperitoneal (IP) administration of the drug was employed with all five tumor systems investigated. Tumor implantation was IP in the systems designated IP leukemia L1210 and P388 as well as B16 melanoma. Intracerebral (IC) tumor implantation was utilized in the IC L1210 and ependymoblastoma tumor systems.

[7] = reported; Europe / Japan; cited from earlier work

CC(=O)NC1=C(N2CC2)C(=O)C(NC(C)=O)=C(N2CC2)C1=O [Compound 27, reference compound]
activity in L1210 [1]: intraperitoneal (IP) leukemia L1210 activity

O=C1C(Cl)=C(N2CC2)C(=O)C(Cl)=C1N1CC1 [Compound 4, 2,5-dichloro-3,6-diaziridinyl-1,4-benzoquinone]
activity in L1210 [1]: inactive

COC1=C(Br)C(=O)C(OC)=C(Br)C1=O [Compound 14, 2,5-dibromo-3,6-dimethoxy-1,4-benzoquinone]
activity in L1210 [1]: inactive

COC1=C(N2CC2)C(=O)C(OC)=C(N2CC2)C1=O [Compound 28, reference compound]
activity in L1210 [1]: intraperitoneal (IP) leukemia L1210 activity

O=C1C(N2CC2)=C(N2CC2)C(=O)C(N2CC2)=C1N1CC1 [tetraaziridinyl derivative, reference compound]
ILS ([1]; L1210 leukemia, earlier evaluation): 39%

O=C1C(NCCO)=C(N2CC2)C(=O)C(NCCO)=C1N1CC1 [Compound 38]
activity in IP P388 [2]: very active producing multiple cures | OD [2]: 0.4 mg/kg/injection | ILS [2]: 175% and 160% | animals alive per 6 [2]: 3 and 2 | survivors, P388 [2]: 3 | activity in B16 melanoma [3]: reproducibly active | OD [3]: 0.4 mg/kg/injection | ILS [3]: 61% and 51% | activity in IC L1210 [4]: marginal IC L1210 activity | OD ([4]; QD1-9, Table X): 0.75 mg/kg/injection | ILS ([4]; Table X): 57% and 48% | OD [5]: 1.5 mg/kg/injection | ILS [5]: 83% and 70% | activity in IP L1210 [6]: Excellent activity; also recorded: produced cures; also recorded: superior | OD ([6]; Day 1 only (1 injection)): 1.5 mg/kg/injection | ILS ([6]; Day 1 only, at OD): 175% and 119% | animals alive per 6 ([6]; Day 1 only, day 30, at OD): 5 and 3 | OD ([6]; Q4D (day 1,5,9)): 0.7 mg/kg/injection | ILS ([6]; Q4D, at OD): 131% and 70% | OD ([6]; QD1-9 (9 injections)): 0.7 mg/kg/injection | ILS ([6]; QD1-9, at OD): 205% and 134% | animals alive per 6 ([6]; QD1-9, day 30, at OD): 2 and 3 | survivors, IP L1210 ([6]; Table XI): 2 | maximum ILS ([6]; chronic schedule): > 200%

CN(CCO)C1=C(N2CC2)C(=O)C(N(C)CCO)=C(N2CC2)C1=O [Compound 42]
OD [2]: 1.6 mg/kg/injection and 0.8 mg/kg/injection | ILS [2]: 162% | activity in B16 melanoma [3]: approached minimal reproducible activity | OD [3]: 0.8 mg/kg/injection | ILS [3]: 47% and 31% | OD ([4]; QD1-9, Table X): 4.0 mg/kg/injection and 2.0 mg/kg/injection | ILS ([4]; Table X): 45% and 32% | OD [5]: 0.4 mg/kg/injection and 0.2 mg/kg/injection | ILS [5]: 84% and 69% | ILS ([6]; Day 1 only, at OD): -5% | OD ([6]; Q4D (day 1,5,9)): 0.4 mg/kg/injection and 0.2 mg/kg/injection | OD ([6]; QD1-9 (9 injections)): 1.5 mg/kg/injection | ILS ([6]; QD1-9, at OD): 114% and 111% | animals alive per 6 ([6]; QD1-9, day 30, at OD): 1 | survivors, IP L1210 ([6]; Table XI): 1

O=C1C(NCC(O)CO)=C(N2CC2)C(=O)C(NCC(O)CO)=C1N1CC1 (centres unmarked) [Compound 39]
activity in IP P388 [2]: very active producing multiple cures | OD [2]: 4.0 mg/kg/injection | ILS [2]: 143% | animals alive per 6 [2]: 6 and 4 | survivors, P388 [2]: 6 | activity in B16 melanoma [3]: reproducibly active | OD [3]: 4.0 mg/kg/injection and 6.0 mg/kg/injection | ILS [3]: 50% and 42% | activity in IC L1210 [4]: marginal IC L1210 activity | OD ([4]; QD1-9, Table X): 4.0 mg/kg/injection | ILS ([4]; Table X): 43% and 41% | activity in ependymoblastoma [5]: moderate to good EM activity | ILS [5]: 99% and 53% | animals alive per 6 [5]: 1 | ILS (%) EM ([5]; Table XI, outstanding activity): 99% | survivors, EM ([5]; Table XI): 1 | survivors, EM ([5]; repeat test): 6 | activity in IP L1210 [6]: Excellent activity; also recorded: produced cures; also recorded: probably the most active compound in the IP ascites systems | OD ([6]; Day 1 only (1 injection)): 4.0 mg/kg/injection and 2.0 mg/kg/injection | ILS ([6]; Day 1 only, at OD): 89% | animals alive per 6 ([6]; Day 1 only, day 30, at OD): 4 | OD ([6]; Q4D (day 1,5,9)): 4.0 mg/kg/injection and 8.0 mg/kg/injection | ILS ([6]; Q4D, at OD): 90% and 79% | OD ([6]; QD1-9 (9 injections)): 4.0 mg/kg/injection and 2.0 mg/kg/injection | ILS ([6]; QD1-9, at OD): 206% | survivors, IP L1210 ([6]; Table XI): 5

COC(COC(N)=O)C1=C(N2CC2)C(=O)C(C)=C(N2CC2)C1=O (centres unmarked) [Compound 30, carbazilquinone]
clinical activity [7]: Clinical activity has been reported

CC(=O)NC1=C(Cl)C(=O)C(NC(C)=O)=C(Cl)C1=O [Compound 20, 2,5-dichloro-3,5-acetylamino-1,4-benzoquinone]
activity in L1210 [1]: inactive

O=C1C=C(N2CC2)C(=O)C(N2CC2)=C1N1CC1 [Compound 29, Trenimon]
clinical activity [7]: Clinical activity has been reported

CCNC1=C(N2CC2)C(=O)C(NCC)=C(N2CC2)C1=O [Compound 35, 2,5-DIAZIRIDINYL-3,6-BIS(ETHYLAMINO)-1,4-BENZOQUINONE]
ILS [2]: 160% and 103% | OD [3]: 0.4 mg/kg/injection and 0.7 mg/kg/injection | ILS [3]: 26% and 24% | OD ([4]; QD1-9, Table X): 3.0 mg/kg/injection | ILS ([4]; Table X): 44% and 40% | activity in ependymoblastoma [5]: most active | OD [5]: 1.5 mg/kg/injection | ILS [5]: 218% and 187% | animals alive per 6 [5]: 2 | survivors, EM ([5]; Table XI): 2 | activity in IP L1210 [6]: activity appears to peak | OD ([6]; Day 1 only (1 injection)): 1.5 mg/kg/injection | ILS ([6]; Day 1 only, at OD): 68% and 54% | OD ([6]; Q4D (day 1,5,9)): 3.0 mg/kg/injection and 1.5 mg/kg/injection | ILS ([6]; Q4D, at OD): 75% and 57% | OD ([6]; QD1-9 (9 injections)): 1.5 mg/kg/injection | ILS ([6]; QD1-9, at OD): 112% and 91% | T-C [6]: -3.3 grams | animals alive per 6 ([6]; QD1-9, day 30, at OD): 2 and 1 | survivors, IP L1210 ([6]; Table XI): 2

NC(=O)CNC1=C(N2CC2)C(=O)C(NCC(N)=O)=C(N2CC2)C1=O [Compound 40]
OD [2]: 2.0 mg/kg/injection | ILS [2]: 85% and 71% | ILS [3]: 37% and 22% | ILS ([4]; Table X): 16% | OD [5]: 2.0 mg/kg/injection and 1.0 mg/kg/injection | ILS [5]: 64% and 50% | OD ([6]; Day 1 only (1 injection)): 10.0 mg/kg/injection | ILS ([6]; Day 1 only, at OD): 21% and 15% | OD ([6]; Q4D (day 1,5,9)): 8.0 mg/kg/injection | OD ([6]; QD1-9 (9 injections)): 10.0 mg/kg/injection | ILS ([6]; QD1-9, at OD): 92% and 91%

O=C1C(N2CCN(CCO)CC2)=C(N2CC2)C(=O)C(N2CCN(CCO)CC2)=C1N1CC1 [Compound 47]
activity in IP P388 [2]: very active producing multiple cures | OD [2]: 0.5 mg/kg/injection and 1.0 mg/kg/injection | ILS [2]: 143% | animals alive per 6 [2]: 3 and 6 | survivors, P388 [2]: 3 | ILS [3]: 22% | activity in IC L1210 [4]: marginal IC L1210 activity | OD ([4]; QD1-9, Table X): 2.0 mg/kg/injection and 1.5 mg/kg/injection | ILS ([4]; Table X): 43% and 41% | T-C ([4]; QD1-9, day 5, at OD, Table X): -1.4 grams | OD [5]: 1.0 mg/kg/injection | ILS [5]: 75% | activity in IP L1210 [6]: produced cures; also recorded: superior | OD ([6]; Day 1 only (1 injection)): 4.0 mg/kg/injection | OD ([6]; Q4D (day 1,5,9)): 4.0 mg/kg/injection and 2.0 mg/kg/injection | ILS ([6]; Q4D, at OD): 180% | animals alive per 6 ([6]; Q4D, day 30, at OD): 3 and 4 | OD ([6]; QD1-9 (9 injections)): 1.0 mg/kg/injection and 0.5 mg/kg/injection | T-C [6]: -1.7 grams | animals alive per 6 ([6]; QD1-9, day 30, at OD): 1 | ILS (%) IP L1210 ([6]; Table XI, outstanding activity): 180% | survivors, IP L1210 ([6]; Table XI): 3

O=C1C(N2CC2)=C(N2CCCC(O)C2)C(=O)C(N2CC2)=C1N1CCCC(O)C1 (centres unmarked) [Compound 45]
OD [2]: 1.0 mg/kg/injection | ILS [2]: 95% and 78% | activity in B16 melanoma [3]: approached minimal reproducible activity | OD [3]: 1.0 mg/kg/injection | ILS [3]: 40% and 37% | OD ([4]; Q4D(1,5,9), Table X): 8.0 mg/kg/injection and 6.0 mg/kg/injection | ILS [5]: 64% and 48% | OD ([6]; Q4D (day 1,5,9)): 6.0 mg/kg/injection and 4.0 mg/kg/injection | ILS ([6]; Q4D, at OD): 104% and 84% | animals alive per 6 ([6]; Q4D, day 30, at OD): 2 | OD ([6]; QD1-9 (9 injections)): 3.0 mg/kg/injection | ILS ([6]; QD1-9, at OD): 59% and 44%

O=C1C(Cl)=C(Cl)C(=O)C(Cl)=C1Cl [chloranil, tetrachlorobenzoquinone, reference compound]
activity in L1210 [1]: inactive

NC1=C(Cl)C(=O)C(N)=C(Cl)C1=O [Compound 19]
activity in L1210 [1]: inactive

From patent US4704384A, “Aziridinyl quinone antitumor agents” (priority 1981, dated 1987)
